In US10556865B2, “Synergistic herbicidal composition containing certain pyridine or pyrimidine carboxylic acids and certain cereal and rice herbicides” (Dow AgroSciences, LLC, priority 2007, dated 2020):
Where “and” joins values, the source holds several entries; their conditions need not be identical. Equal values may be shown once.

Experiments:
Assay type in all cases: in vivo
[1] = test system: Echinochloa species (ECHSS); experiment: Herbicidal mixtures for weed control in transplanted paddy rice (in-water application, visual % injury after 3 weeks)
Experimental: (§1) Weed seeds or nutlets of the desired test plant species were planted in puddled soil (mud) prepared by mixing a non-sterilized mineral soil (28 percent silt, 18 percent clay, and 54 percent sand, with a pH of about 7.3 to 7.8 and an organic matter content of about 1.0 percent) and water at a ratio of 100 kilograms (kg) of soil to 19 L of water. The prepared mud was dispensed in 250 mL aliquots into 480 mL non-perforated plastic pots with a surface area of 91.6 square centimeters leaving a headspace of 3 centimeters in each pot. Rice seeds were planted in Sun Gro MetroMix® 306 planting mixture, which typically has a pH of 6.0 to 6.8 and an organic matter content of about 30 percent, in plastic plug trays. Seedlings at the second or third leaf stage of growth were transplanted into 650 mL of mud contained in 960 mL non-perforated plastic pots with a surface area of 91.6 cm^2 4 days prior to herbicide application. The paddy was created by filling the 3 centimeter headspace of the pots with water. When required to ensure good germination and healthy plants, a fungicide treatment and/or other chemical or physical treatment was applied. The plants were grown for 4-14 days in a greenhouse with an approximate 14 hr photoperiod which was maintained at about 29° C. during the day and 26° C. during the night. Nutrients were added as Osmocote (17:6:10, N:P:K+minor nutrients) at 2 g per cup. Water was added on a regular basis to maintain the paddy flood, and supplemental lighting was provided with overhead metal halide 1000-Watt lamps as necessary. The plants were employed for testing when they reached the second or third true leaf stage.
(§2) Treatments consisted of esters or salts of compound A, compound C, or compound D and various herbicidal components alone and in combination. For technical grade compounds, a weighed amount, determined by the highest rate to be tested, was placed in an individual 120 mL glass vial and was dissolved in 20 mL of acetone to obtain concentrated stock solutions. […] The concentrated stock solutions obtained were diluted with 20 mL of an aqueous mixture containing 2.5% Agri-dex crop oil concentrate (v/v). For formulated compounds, a measured amount, determined by the highest rate to be tested, was placed in an individual 120 mL glass vial and was dissolved in 20 mL of 2.5% (v/v) Agri-dex crop oil concentrate to obtain concentrated stock solutions. The concentrated stock solutions obtained were diluted with 20 mL of acetone. Applications were made by injecting an appropriate amount of the stock solution into the aqueous layer of the paddy. Control plants were treated in the same manner with the solvent blank. All treated plant material received the same concentration of acetone and crop oil concentrate.
(§3) Forms of compounds A, C, and D were applied on an acid equivalent basis. Other herbicidal components were applied on an active ingredient basis and included acetolactate synthase (ALS)-inhibiting herbicides penoxsulam (triazolopyrimidine chemical class) applied as Grasp SC, […] (sulfonylurea chemical class) applied as Sirius G, and bensulfuron-methyl (sulfonylurea chemical class) applied as Londax; acetyl CoA carboxylase (ACCase) inhibiting herbicides cyhalofop-butyl applied as Clincher G and fenoxaprop-p-ethyl applied as Ricestar HT; auxinic herbicide quinclorac applied as Facet 75 DF; phytoene desaturase inhibiting herbicide norflurazon; and p-hydroxyphenylpyruvate dioxygenase (HPPD) inhibiting herbicide sulcotrione applied as Mikado.
(§4) The treated plants and control plants were placed in a greenhouse as described above and water was added as needed to maintain a paddy flood. After 3 weeks the condition of the test plants as compared with that of the untreated plants was determined visually and scored on a scale of 0 to 100 percent where 0 corresponds to no injury and 100 corresponds to complete kill.

[2] = test system: Fimbristylis miliacea (L.) VAHL (FIMMI); experiment: Herbicidal mixtures for weed control in transplanted paddy rice (in-water application, visual % injury)
Experimental: as §1, with “When required to ensure good germination and healthy plants, a fungicide treatment and/or other chemical or physical treatment was applied.” left out
as §2, §3, §4

[3] = test system: Leptochloa chinensis (L.) NEES (LEFCH); experiment: as above
Experimental: as §1, §2, §3, §4

[4] = test system: Eleocharis kuroguwai OHWI (ELOKU); experiment: as above
Experimental: as §1, §2, §3, §4

[5] = test system: Cyperus species (CYPSS); experiment: as above
Experimental: as §1, §2, §3, §4

[6] = test system: Leptochloa chinensis (L.) NEES (LEFCH); experiment: Postemergence herbicidal mixtures for weed control in direct seeded rice (greenhouse, visual % injury)
[7] = test system: Cyperus esculentus L. (CYPES); experiment: as above
[8] = test system: Cyperus iria L. (CYPIR); experiment: as above
[9] = test system: Polygonum persicaria L. (POLPE); experiment: as above
[10] = test system: Scirpus maritimus L. (SCPMA); experiment: as above
[11] = test system: Ipomoea hederacea (L.) JACQ. (IPOHE); experiment: Postemergence herbicidal mixtures for weed control in direct seeded rice (greenhouse, visual % injury after 3 weeks)
[12] = test system: Polygonum pensylvanicum L. (POLPY); experiment: Postemergence herbicidal mixtures for weed control in direct seeded rice (greenhouse, visual % injury)
[13] = test system: Ischaemum rugosum SALISB. (ISCRU); experiment: as above

COC(=O)c1ccccc1CS(=O)(=O)NC(=O)Nc1nc(OC)cc(OC)n1 [Bensulfuron-methyl]
% Injury Ob ([1]; ECHCG, 70 g/ha alone): 45% and 70%
% Injury Ob ([1]; ECHCO, 35 g/ha alone): 20%
% Injury Ob ([1]; ECHCO, 70 g/ha alone): 30%
% Injury Ob ([2]; 35 g/ha alone): 10%
% Injury Ob ([2]; 70 g/ha alone): 50%
% Injury Ob ([3]; 35 g/ha alone): 15%
% Injury Ob ([3]; 70 g/ha alone): 30%
% Injury Ob ([4]; 35 g/ha alone): 20%
% Injury Ob ([4]; 70 g/ha alone): 70%
% Injury Ob ([5]; CYPES, 4.38 g/ha alone): 40%
% Injury Ob ([5]; CYPES, 8.75 g/ha alone): 50%
% Injury LEFCH Ob ([6]; alone 4.38 g/ha): 20%
% Injury LEFCH Ob ([6]; alone 8.75 g/ha): 0%

CCOC(=O)C(Cl)Cc1cc(-n2nc(C)n(C(F)F)c2=O)c(F)cc1Cl (stereo not drawn) [Carfentrazone-ethyl]
% Injury 11 DAA CYPES Ob ([7]; alone 14 g/ha): 10%
% Injury 11 DAA CYPES Ob ([7]; alone 28 g/ha): 10%
% Injury 21 DAA CYPES Ob ([7]; alone 14 g/ha): 0%
% Injury 21 DAA CYPES Ob ([7]; alone 28 g/ha): 0%
% Injury CYPES Ob ([7]; alone 56 g/ha): 10%
% Injury CYPES Ob ([7]; alone 112 g/ha): 0%
% Injury CYPIR Ob ([8]; alone 14 g/ha): 0%
% Injury CYPIR Ob ([8]; alone 28 g/ha): 0%
% Injury POLPE Ob ([9]; alone 14 g/ha): 0%

CCCCOC(=O)c1nc(-c2ccc(Cl)c(OC)c2F)cc(N)c1Cl [Compound A n-Butyl]
% Injury 11 DAA CYPES Ob ([7]; alone 35 g/ha): 50%
% Injury 11 DAA CYPES Ob ([7]; alone 70 g/ha): 75%
% Injury 21 DAA CYPES Ob ([7]; alone 35 g/ha): 90%
% Injury 21 DAA CYPES Ob ([7]; alone 70 g/ha): 100%
% Injury CYPES Ob ([7]; alone 8.75 g/ha): 50%
% Injury CYPES Ob ([7]; alone 17.5 g/ha): 85% and 90%
% Injury at 11 DAA SCPMA Ob ([10]; alone 35 g/ha): 30%
% Injury at 11 DAA SCPMA Ob ([10]; alone 70 g/ha): 100%
% Injury at 21 DAA SCPMA Ob ([10]; alone 35 g/ha): 50%
% Injury at 21 DAA SCPMA Ob ([10]; alone 70 g/ha): 100%
% Injury at 11 DAA CYPIR Ob ([8]; alone 35 g/ha): 60%
% Injury at 11 DAA CYPIR Ob ([8]; alone 70 g/ha): 90%
% Injury at 21 DAA CYPIR Ob ([8]; alone 35 g/ha): 60%
% Injury at 21 DAA CYPIR Ob ([8]; alone 70 g/ha): 100%
% Injury IPOHE Ob ([11]; alone 8.75 g/ha): 35%
% Injury IPOHE Ob ([11]; alone 17.5 g/ha): 30%
% Injury POLPE Ob ([9]; alone 4.38 g/ha): 40%
% Injury POLPE Ob ([9]; alone 8.75 g/ha): 60%
% Injury LEFCH Ob ([6]; alone 8.75 g/ha): 10%
% Injury LEFCH Ob ([6]; alone 17.5 g/ha): 30%
% Injury LEFCH Ob ([6]; alone 35 g/ha): 60%
% Injury POLPY Ob ([12]; alone 8.75 g/ha): 40%
% Injury POLPY Ob ([12]; alone 17.5 g/ha): 90%
% Injury ISCRU Ob ([13]; alone 35 g/ha): 20%
% Injury ISCRU Ob ([13]; alone 70 g/ha): 50%

COC(=O)c1nc(-c2ccc(Cl)c(OC)c2Cl)cc(N)c1Cl [Compound C Methyl]
% Injury Ob ([1]; ECHCG, 4.38 g/ha alone): 0%
% Injury Ob ([1]; ECHCG, 8.75 g/ha alone): 0%
% Injury Ob ([1]; ECHCG, 17.5 g/ha alone): 0%
% Injury Ob ([1]; ECHCG, 35 g/ha alone): 10%
% Injury CYPES Ob ([7]; alone 17.5 g/ha): 65% and 100%
% Injury CYPIR Ob ([8]; alone 8.75 g/ha): 25%
% Injury CYPIR Ob ([8]; alone 35 g/ha): 40%
% Injury IPOHE Ob ([11]; alone 4.38 g/ha): 40%
% Injury IPOHE Ob ([11]; alone 17.5 g/ha): 50% and 40%
% Injury IPOHE Ob ([11]; alone 70 g/ha): 85%
% Injury Ob ([3]; 17.5 g/ha alone): 0%
% Injury Ob ([3]; 35 g/ha alone): 0%
% Injury Ob ([3]; 70 g/ha alone): 0%
% Injury POLPE Ob ([9]; alone 35 g/ha): 85%
% Injury POLPE Ob ([9]; alone 70 g/ha): 100%
% Injury LEFCH Ob ([6]; alone 4.38 g/ha): 0%
% Injury POLPY Ob ([12]; alone 8.75 g/ha): 10%
% Injury POLPY Ob ([12]; alone 17.5 g/ha): 15%

COc1cnc(OC)n2nc(NS(=O)(=O)c3c(OCC(F)F)cccc3C(F)(F)F)nc12 [Penoxsulam]
% Injury Ob ([1]; ECHCG, 4.38 g/ha alone): 70%
% Injury CYPES Ob ([7]; alone 17.5 g/ha): 10%
% Injury IPOHE Ob ([11]; alone 4.38 g/ha): 70%
% Injury IPOHE Ob ([11]; alone 8.75 g/ha): 60%
% Injury Ob ([3]; 8.75 g/ha alone): 0%
% Injury Ob ([3]; 17.5 g/ha alone): 15%
% Injury Ob ([3]; 35 g/ha alone): 20%
% Injury Ob ([4]; 8.75 g/ha alone): 0%
% Injury Obs ([4]; 8.75 g/ha alone): 0%
% Injury Ob ([5]; CYPES, 8.75 g/ha alone): 40%
% Injury Ob ([5]; CYPIR, 8.75 g/ha alone): 70%
% Injury LEFCH Ob ([6]; alone 17.5 g/ha): 0%
% Injury LEFCH Ob ([6]; alone 35 g/ha): 0%

CCC(=O)Nc1ccc(Cl)c(Cl)c1 [Propanil]
% Injury at 11 DAA SCPMA Ob ([10]; alone 560 g/ha): 30%
% Injury at 11 DAA SCPMA Ob ([10]; alone 1120 g/ha): 30%
% Injury at 21 DAA SCPMA Ob ([10]; alone 560 g/ha): 0%
% Injury at 21 DAA SCPMA Ob ([10]; alone 1120 g/ha): 0%
% Injury at 11 DAA CYPIR Ob ([8]; alone 560 g/ha): 10%
% Injury at 11 DAA CYPIR Ob ([8]; alone 1120 g/ha): 10%
% Injury at 21 DAA CYPIR Ob ([8]; alone 560 g/ha): 0%
% Injury at 21 DAA CYPIR Ob ([8]; alone 1120 g/ha): 0%
% Injury IPOHE Ob ([11]; alone 560 g/ha): 10%
% Injury IPOHE Ob ([11]; alone 1120 g/ha): 10%
% Injury POLPE Ob ([9]; alone 560 g/ha): 10%
% Injury POLPE Ob ([9]; alone 1120 g/ha): 40%
